The results in this text go back to US7605272B2, “IGF-1R inhibitor” (Kyowa Hakko Kirin Co., Ltd., priority 2005, dated 2009).

Molecules are shown by their SMILES.

The target of one assay is T1, IGF-1R (Homo sapiens, UniProt P08069).
T1 construct: purchased Upstate Co. 14-465
In words: IGF-1R inhibitory activity (kinase reaction, time-resolved fluoroimmunoassay). The class given is biochemical. The conditions noted are these: test compound 10 μmol/L. The method in brief: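 Compounds were tested at a single 10 μmol/L concentration. Each was incubated with recombinant IGF-1R (200 μg/L), 10 mmol/L ATP, MgCl2/MnCl2 and Na3VO4 (pH 7.5) on immobilized poly(Glu-Tyr) peptide for 30 min at 24° C. Eu-anti-phosphotyrosine time-resolved fluorescence (340/615 nm) gave relative activity against no-compound and no-enzyme wells, reported as % inhibition.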

In a further assay the test system is NCI-H929. In words: Cytostatic activity on human multiple myeloma cell line NCI-H929 (WST-1). The class given is cell-based. To be noted: 72 hours; for inhibition at 10 µM: Homo sapiens, NCI-H929, 72 h, 10 μmol/L, read-out: cytostatic rate (%) H929 (10 μmol/L). The procedure:
The cytostatic rates of a test compound on human multiple myeloma cell lines NCI-H929 and KMS-11, were determined in the following manner.
For culturing NCI-H929, Roswell Park Memorial Institute's Medium (RPMI) 1640 (Gibco, Catalog No. 11875-093) containing 15% fetal bovine serum (Gibco, Catalog No. 10099-141), 1 mmol/L sodium pyruvate (Gibco, Catalog No. 11360-070), 10 mmol/L HEPES (Gibco, Catalog No. 15630-80), 4.5 g/L glucose (Sigma, Catalog No. G8769), 0.05 mmol/L 2-mercaptethanol (Nacalai Tesque, Catalog No. 21418-42) and penicillin/streptomycin (1:1) (Gibco, Catalog No. 15140-122) was used. For culturing KMS-11 cell, RPMI 1640 medium containing 10% fetal bovine serum and penicillin/streptomycin (1:1) was used. Each 80 μL of the NCI-H929 cell having a concentration of 1×10^5 cells/mL (or the KMS-11 cell having a concentration of 7.5×10^4 cells/mL) was inoculated to wells of a TC MICROWELL 96U plate (Nalge Nunc International, Catalog No. 163320) and was cultured in a 5% carbon dioxide gas incubator at 37° C. for 24 hours. Each 20 μL of a solution of the test compound in dimethyl sulfoxide (DMSO) which was prepared to make the final concentration to 1 μmol/L or 10 μmol/L, was added to each well. Each 20 μL of DMSO was added to the control well and the blank well to a final concentration of 0.1%. After adding the test compound, the cells were incubated in a 5% carbon dioxide gas incubator at 37° C. for 72 hours except for the blank well. After adding 20 μL of WST-1 reagent {4-[3-(4-iodophenyl)-2-(4-nitrophenyl)-2H-5-tetrazolio]-1,3-benzene disulfonate sodium salt} (Roche Diagnostics K.K., Catalog No. 1644807), which was diluted to 50% by RPMI medium to each well, the cells were further incubated at 37° C. for 2 hours. Then, the absorbances at 450 nm (reference wavelength: 690 nm) were measured with a microplate spectrophotometer SPECTRA max 340PC (Molecular Devices Corporation). The relative growth (%) of a well to which the test compound had been added and cultured for 72 hours was determined while setting the absorbance of a well to which not the test compound but DMSO alone had been added and cultured for 72 hours (control) as 100% and that of a well where the drugs are added (blank) as 0%. The cytostatic rate (%) of the test compound was determined by subtracting the calculated relative growth from 100.
In general terms: Formazan colour is commonly taken as a measure of viable cells.

[1] abbreviates: IGF-1R active recombinant enzyme.

T1 sequence (P08069 959-1367 limits assumed): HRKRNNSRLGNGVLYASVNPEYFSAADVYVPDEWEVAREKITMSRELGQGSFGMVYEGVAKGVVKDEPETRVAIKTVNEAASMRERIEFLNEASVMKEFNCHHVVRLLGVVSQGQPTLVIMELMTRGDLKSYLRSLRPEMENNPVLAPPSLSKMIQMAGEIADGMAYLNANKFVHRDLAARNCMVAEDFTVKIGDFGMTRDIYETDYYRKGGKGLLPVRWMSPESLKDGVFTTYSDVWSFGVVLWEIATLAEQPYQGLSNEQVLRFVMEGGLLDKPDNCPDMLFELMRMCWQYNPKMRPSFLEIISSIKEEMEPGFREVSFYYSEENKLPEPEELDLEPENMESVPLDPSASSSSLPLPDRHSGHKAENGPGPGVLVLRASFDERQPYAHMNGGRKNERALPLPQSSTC

Consider `CN(C(=O)c1ccccc1)c1ccccc1/C=C/c1n[nH]c2ccccc12` [Compound 38, (E)-N-{2-[2-(1H-indazol-3-yl)vinyl]phenyl}-N-methylbenzamide], for which the inhibition at 10 µM amounted to 93% at IGF-1R (setting [1]) and 65% in the assay on NCI-H929.

On to `O=C(Nc1ccc(C(=O)Nc2ccccc2/C=C/c2n[nH]c3ccccc23)s1)c1cccs1` [Compound 61, (E)-N-{2-[2-(1H-indazol-3-yl)vinyl]phenyl}-5-[(thiophen-2-ylcarbonyl)amino]thiophene-2-carboxamide], for which the inhibition at 10 µM was determined as 94.5% on IGF-1R (setting [1]) and 124% with NCI-H929.

With `CC(C)C(=O)Nc1ccc(C(=O)Nc2ccccc2/C=C/c2n[nH]c3ccccc23)s1` [Compound 62, (E)-N-{2-[2-(1H-indazol-3-yl)vinyl]phenyl}-5-isobutyrylaminothiophene-2-carboxamide], the results for the inhibition at 10 µM on IGF-1R (setting [1]) and in the assay with NCI-H929 were 95.7% and 120%, respectively.

Turning to `COc1cc(N)c(/C=C/c2n[nH]c3ccccc23)cc1OC` [Compound 92, (E)-2-[2-(1H-indazol-3-yl)vinyl]-4,5-dimethoxyphenylamine], the inhibition at 10 µM is 66.5% at IGF-1R and 70.1% with NCI-H929.

As for `Cc1ccsc1C(=O)Nc1cc(C(=O)O)ccc1/C=C/c1n[nH]c2ccccc12` [Compound 98, (E)-4-[2-(1H-indazol-3-yl)vinyl]-3-[(3-methylthiophen-2-ylcarbonyl)amino]benzoic acid], the values for the inhibition at 10 µM against IGF-1R and in the assay on NCI-H929 were 98.4% and 66.3%, respectively.

With `Cc1ccsc1C(=O)Nc1cc(C(=O)N2CC[C@@H](N)C2)ccc1/C=C/c1n[nH]c2ccccc12` [Compound 102, (E)-(R)—N-{5-(3-aminopyrrolidine-1-ylcarbonyl)-2-[2-(1H-indazol-3-yl)vinyl]phenyl}-3-methylthiophene-2-carboxamide], the inhibition at 10 µM against IGF-1R turned out to be 97.8%; in the assay with NCI-H929 it was 125%.

Take `Cc1ccsc1C(=O)Nc1ccc(OCCN2CCOCC2)cc1/C=C/c1n[nH]c2ccccc12` [Compound 103, (E)-N-{2-[2-(1H-indazol-3-yl)vinyl]-4-(2-morpholinoethoxy)phenyl}-3-methylthiophene-2-carboxamide]: the inhibition at 10 µM came out at 97% against IGF-1R and 130% in the assay on NCI-H929.

As for `Cn1cccc1C(=O)Nc1ccc(OCCN2CCOCC2)cc1/C=C/c1n[nH]c2ccccc12` [Compound 104, (E)-N-{2-[2-(1H-indazol-3-yl)vinyl]-4-(2-morpholinoethoxy)phenyl}-1-methylpyrrole-2-carboxamide], the inhibition at 10 µM on IGF-1R was 98.3%; in the assay on NCI-H929, 130%.

Take `Cc1ccsc1C(=O)Nc1cc2c(cc1/C=C/c1n[nH]c3ccccc13)OCO2` [Compound 130, (E)-N-{6-[2-(1H-indazol-3-yl)vinyl]benzo[1,3]dioxol-5-yl}-3-methylthiophene-2-carboxamide]: the inhibition at 10 µM came out at 98.3% at IGF-1R and 126% in the assay on NCI-H929.

For `Cn1cccc1C(=O)Nc1cc2c(cc1/C=C/c1n[nH]c3ccccc13)OCO2` [Compound 131, (E)-N-{6-[2-(1H-indazol-3-yl)vinyl]benzo[1,3]dioxol-5-yl}-1-methylpyrrole-2-carboxamide], the inhibition at 10 µM against IGF-1R was 94.1%; with NCI-H929, 122%.

Consider `CC(=O)N1CCN(c2ccccc2/C=C/c2n[nH]c3ccccc23)CC1` [Compound 133, (E)-4-acetyl-1-{2-[2-(1H-indazol-3-yl)vinyl]phenyl}piperazine], for which the inhibition at 10 µM at IGF-1R (setting [1]) came out at 70.4%; in the assay on NCI-H929 it was 62.9%.

With `OCc1ccn(-c2ccccc2/C=C/c2n[nH]c3ccccc23)c1` [Compound 168, (E)-1-{2-[2-(1H-indazol-3-yl)vinyl]phenyl}-1H-pyrrole-3-methanol], the inhibition at 10 µM on IGF-1R (setting [1]) was determined as 99%; in the assay on NCI-H929, 106%.

For the compound `O=C(Nc1cc(C(=O)N2CCN(CCO)CC2)ccc1/C=C/c1n[nH]c2ccccc12)c1ccccc1` [Compound 290], the “inhibitory activity (%) at 10 μmol/L” value at IGF-1R (setting [1]) is given as 95.7%. Also, the “cytostatic rate (%) H929 (1 μmol/L)” value in the assay with NCI-H929 (1 μmol/L) was 93.8%.
